Data as given in patent EP0405748A1, “Phosphonoderivative of purine with antiviral activity” (Beecham Group p.l.c., priority 1989, dated 1991).
In brackets after ≈: the same amount, converted by molar mass. Like-named read-outs stand apart in the source and are kept apart here.

Columns and labels:
Type in all cases: cell-based
[1] = test system: cytomegalovirus (CMV; AD-169 strain); assay: Plaque Reduction Test for Cytomegalovirus; conditions: Human betaherpesvirus 5, AD169, MRC5, MRC-5 cells, read-out: IC₅₀ against CMV
Procedure: MRC-5 cells were grown to confluence in 24 well multi-dishes (well diameter = 1.5cm). The drained cell monolayers were each infected with approximately 50 infectious particles of cytomegalovirus (CMV; AD-169 strain) in 100µl of phosphate-buffered saline. The virus wasadsorbed for 1 hour at room temperature. After adsorption, residual inoculum was removed from each well and replaced with 1ml of Eagle's MEM containing 10% heatinactivated foetal calf serum and 0.9% agarose (A37). Once the agarose had set, dilutions of the test compound, which had been prepared in Eagle's MEM (containing 10% heat-inactivated calf serum), wereadded, each well receiving 1ml of liquid overlay. The test compound was diluted to give the following series of concentrations: 200, 60, 20, 6....0.06µg/ml; final concentrations in the assay range, therefore, between 100µg/ml and 0.03µg/ml. The infected cultures were incubated at 37 °C in a humidified atmosphere containing 5% CO₂ until plaques were clearly visible (about 12days). The cultures are fixed in formol saline, the agarose overlays were carefully washed off, and then the cell monolayers were stained with carbol fuchsin. A stereo microscope was used to count plaques. The IC₅₀ (concentration of drug which inhibits the number of plaques formed by 50% relative to the number of plaques observed in virus control monolayers) of the test compound was calculated. In addition, the monolayers were examined for evidence of drug-induced cytotoxicity; the minimum concentration at which cytotoxicity occurs was recorded.

[2] = test system: herpes simplex virus 1 (HSV-1; HFEM strain); assay: Plaque Reduction Test for Herpes Simplex Virus 1; conditions: Human alphaherpesvirus 1, Vero or MRC-5 cells, read-out: IC₅₀ against HSV-1 virus
Procedure: (§1) Vero or MRC-5 cells were grown to confluence in 24 well multi-dishes (well diameter = 1.5cm). The drained cell monolayers were each infected with approximately 50 infectious particles of herpes simplex virus 1 (HSV-1; HFEM strain) or herpes simplex virus 2 (HSV-2; strain MS) in 100µl of phosphate-buffered saline. The virus was adsorbed for 1 hour at room temperature. After adsorption, residual inoculum was removed from each well and replaced with 0.5ml of Eagle's MEM containing 5% newborn calf serum and 0.9% agarose (A37). Once the agarose had set, dilutions of the test compound, which had been prepared in Eagle's MEM (containing 5% newborn calf serum), were added, each well receiving 0.5ml of liquid overlay. The test compound was diluted to give the following series of concentrations: 200, 60, 20, 6....0.06µg/ml; final concentrations in the assay ranged, therefore, between 100µg/ml and 0.03µg/ml. The infected cultures were incubated at 37 °C in a humidified atmosphere of 5% CO₂ until plaques were clearly visible (2 or 3 days for Vero cells, usually 1 day for MRC-5 cells).
(§2) Cultures from 1 and 2 were fixed in formal saline, the agarose overlays were carefully washed off, and then the cell monolayers were stained with carbol fuchsin. A stereo microscope was used to count plaques. The IC₅₀ (concentration of drug which inhibits the number of plaques formed by 50% relative to the number of plaques observed in virus control monolayers) of the test compound was calculated. In addition, the monolayers were examined for evidence of drug-induced cytotoxicity; the minimum concentration at which cytotoxicity occurred was recorded.

[3] = test system: herpes simplex virus 2 (HSV-2; strain MS); assay: Plaque Reduction Test for Herpes Simplex Virus 2; conditions: Human alphaherpesvirus 2, Vero or MRC-5 cells, read-out: IC₅₀ against HSV-2
Procedure: as §1, §2

HIV-1 strain virus = assay: HIV Suppression test in peripheral human lymphocytes (p24 ELISA and viral RNA hybridisation); conditions: Human immunodeficiency virus 1, Lymphocyte; for inhibition at 10 µM: Concn. 10 µM; for inhibition at 1 µM: Concn. 1 µM
Procedure: Peripheral human lymphocytes were prepared, cultivated, and harvested as above. Following the determination of the lymphocyte surface markers, unstimulated and mitogen stimulated cells were combined in a ratio of 1:2.
Under safety conditions these cells are infected with a standard preparation of HIV. The cells are sedimented by centrifugation. The supernatant was discarded and cells were resuspended in the HIV inoculum.
This inoculum is a liquid suspension of HIV-1 strain virus, pretested and adjusted to a titer that results in a synthesis of viral core protein p24 of >100 ng/ml at day four following infection of human lymphocytes according to the protocol.
3x10⁸ lymphocytes were resuspended in 1 ml HIV inoculum and incubated at 37 °C for 60 minutes. Subsequently, the cells were washed two times with 50 ml of culture medium and resuspended in culture medium containing 10 units/ml of human recombinant interleukin-2 to yield a cell concentration of 2x10⁶ cells/ml. 100µl of this cell suspension was added to each well of the microtiter plates containing the diluted solutions of the compounds. The microtiter plates were cultivated in an incubator with a humidified atmosphere and 5% CO₂ at 37 °C.
Accordingly, a fraction of lymphocytes was mock-infected with the same virus preparation that was heat inactivated (30 minutes at 56 °C) prior to infection.
On each of the days 2,3 and 4 post infection one of the microtiter plates which had been established in triplicate was prepared for determination of viral replication. Viral RNA is determined within the cells whereas the viral core protein p24 was detected in the supernatant of the lymphocyte culture.
Accordingly, 150 µl of supernatant were removed from each well and transferred to the well of a microtiter plate containing 50 µl/well of SDS (sodium dodecylsulfate, 0.08%). These plates were stored frozen. 50 µl of stop solution (1% SDS, 20mM sodium acetate, pH 5.0, and 200 µg/ml heparin) were added to the cells remaining in each well. The plates were stored frozen.
The concentration of p24 synthesized by the HIV infected cells was determined by means of a sandwich ELISA, while the concentration of viral RNA was quantitated by nucleic acid hybridisation, using a ³²P-labelled DNA probe for the gag/pol region of the viral genome. Absolute levels of viral antigen and RNA in drug treated samples were compared with untreated, virus-infected controls and the percentage inhibition calculated.

[4] = test system: varicella zoster virus (VZV; Ellen strain); assay: Plaque Reduction Test for Varicella Zoster Virus; conditions: Human alphaherpesvirus 3, MRC5, MRC-5 cells, read-out: IC₅₀ against VZV
Procedure: MRC-5 cells were grown to confluence in 24 well multi-dishes (well diameter = 1.5cm). The drained cell monolayers were each infected with approximately 50 infectious particles of varicella zoster virus (VZV; Ellen strain) in 100µl of phosphate-buffered saline. The virus was adsorbed for 1 hour at room temperature. After adsorption, residual inoculum was removed from each well and replaced with 0.5ml of Eagle's MEM containing 5% heat-inactivated foetal calf serum and 0.9% agarose (A37). Once the agarose had set, dilutions of the test compound, which had been prepared in Eagle's MEM (containing 5% heat-inactivated foetal calf serum), were added, each well receiving 0.5ml of liquid overlay. The test compound was diluted to give the following series of concentrations: 200, 60, 20, 6....0.06µg/ml; final concentrations in the assay ranged, therefore, between 100µg/ml and 0.03µg/ml. The infected cultures were incubated at 37 °C in a humidified atmosphere of 5% CO₂ until plaques were clearly visible (5 or 6 days).
as §2

[5] = 72 h, viral RNA, Day 3 after infection, read-out: % Inhibition on Days 3 and 4 after infection Viral RNA Day 3
[6] = 72 h, viral core protein p24, Day 3 after infection, read-out: % Inhibition on Days 3 and 4 after infection Viral Anitgen Day 3
[7] = 96 h, viral RNA, Day 4 after infection, read-out: % Inhibition on Days 3 and 4 after infection Viral RNA Day 4
[8] = 96 h, viral core protein p24, Day 4 after infection, read-out: % Inhibition on Days 3 and 4 after infection Viral Anitgen Day 4

Compound | IC50 [1] [µg/mL] | IC50 [2] [µg/mL] | IC50 [3] [µg/mL] | inhibition at 10 µM (HIV-1 strain virus; [5]) [%] | inhibition at 10 µM (HIV-1 strain virus; [6]) [%] | inhibition at 10 µM (HIV-1 strain virus; [7]) [%] | inhibition at 10 µM (HIV-1 strain virus; [8]) [%] | IC50 [4] [µg/mL] | inhibition at 1 µM (HIV-1 strain virus; [5]) [%] | inhibition at 1 µM (HIV-1 strain virus; [6]) [%] | inhibition at 1 µM (HIV-1 strain virus; [7]) [%] | inhibition at 1 µM (HIV-1 strain virus; [8]) [%]
Nc1nc2c(ncn2OC[C@@H]2COP(=O)(O)CO2)c(=O)[nH]1 [Example 5, (R)-9-[(2-Hydroxy-2-oxo-1,4,2-dioxaphosphorinan-5-yl)methoxy]quanine] | 17 (≈ 53.6 µM) | 73 (≈ 230 µM) | 36 (≈ 113 µM) | 64 | 50 | 0 | 7 | 24 (≈ 75.7 µM) | – | – | – | –
Nc1nc2c(ncn2OC[C@H](CO)OCP(=O)(O)O)c(=O)[nH]1 [Example 4, (S)-9-[3-Hydroxy-2-(phosphonomethoxy)propoxy]quanine] | 29 (≈ 86.5 µM) | 25 (≈ 74.6 µM) | 23 (≈ 68.6 µM) | – | – | – | – | 52 (≈ 155 µM) | 10 | 54 | 14 | 15
Nc1nc2c(ncn2OC[C@@H](CO)OCP(=O)(O)O)c(=O)[nH]1 [Example 1, (R)-9-[3-Hydroxy-2-(phosphonomethoxy)propoxy]quanine] | 3 (≈ 8.95 µM) | 7 (≈ 20.9 µM) | 10 (≈ 29.8 µM) | – | – | – | – | 17 (≈ 50.7 µM) | 73 | 100 | 54 | 35
Nc1nc2c(ncn2OC[C@H]2COP(=O)(O)CO2)c(=O)[nH]1 [Example 2, (S)-9-[(2-Hydroxy-2-oxo-1,4,2-dioxaphosphorinan-5-yl)methoxy]quanine] | 3 (≈ 9.46 µM) | 21 (≈ 66.2 µM) | 15 (≈ 47.3 µM) | 92 | 100 | 32 | 33 | 13 (≈ 41 µM) | – | – | – | –
Nc1ncnc2c1ncn2OC[C@@H](CO)OCP(=O)(O)O [Example 3, (R)-9-[3-Hydroxy-2-(phosphonomethoxy)propoxy]adenine] | – | – | – | 83 | 80 | 90 | 91 | – | – | – | – | –
